Assay results reported in the kinase profiling compilation of Christmann-Franck et al. (2016).

How the values were obtained:
Assay in all cases: split-luciferase competition binding
RPS6KA3 KD1 (human) = RPS6KA3 KD1 (human) (UniProt P51812); details: compound 10.0 µM
PRKCD (human) = PRKCD (human) (UniProt Q05655); details: compound 10.0 µM
PRKCI (human) = PRKCI (human) (UniProt P41743); details: compound 10.0 µM
AKT2 (human) = AKT2 (human) (UniProt P31751); details: compound 10.0 µM
PKN1 (human) = PKN1 (human) (UniProt Q16512); details: compound 10.0 µM
STK32B (human) = STK32B (human) (UniProt Q9NY57); details: compound 10.0 µM
PRKX (human) = PRKX (human) (UniProt P51817); details: compound 10.0 µM
RPS6KA2 KD1 (human) = RPS6KA2 KD1 (human) (UniProt Q15349); details: compound 10.0 µM
AKT1 (human) = AKT1 (human) (UniProt P31749); details: compound 10.0 µM
DMPK (human) = DMPK (human) (UniProt Q09013); details: compound 10.0 µM
SGK3 (human) = SGK3 (human) (UniProt Q96BR1); details: compound 10.0 µM
PDPK1 (human) = PDPK1 (human) (UniProt O15530); details: compound 10.0 µM
AKT3 (human) = AKT3 (human) (UniProt Q9Y243); details: compound 10.0 µM
RPS6KA6 KD1 (human) = RPS6KA6 KD1 (human) (UniProt Q9UK32); details: compound 10.0 µM
PRKCE (human) = PRKCE (human) (UniProt Q02156); details: compound 10.0 µM
PRKACA (mouse) = details: compound 10.0 µM; accession and sequence are those of the human protein
PRKCH (human) = PRKCH (human) (UniProt P24723); details: compound 10.0 µM
PRKCG (human) = PRKCG (human) (UniProt P05129); details: compound 10.0 µM
PRKCQ (human) = PRKCQ (human) (UniProt Q04759); details: compound 10.0 µM
RPS6KA1 KD1 (human) = RPS6KA1 KD1 (human) (UniProt Q15418); details: compound 10.0 µM
AURKB (human) = AURKB (human) (UniProt Q96GD4); details: compound 10.0 µM
AURKC (human) = AURKC (human) (UniProt Q9UQB9); details: compound 10.0 µM
PRKACB (human) = PRKACB (human) (UniProt P22694); details: compound 10.0 µM
RPS6KA4 KD1 (human) = RPS6KA4 KD1 (human) (UniProt O75676); details: compound 10.0 µM
AURKA (human) = AURKA (human) (UniProt O14965); details: compound 10.0 µM
RPS6KA5 KD1 (human) = RPS6KA5 KD1 (human) (UniProt O75582); details: compound 10.0 µM
SGK2 (human) = SGK2 (human) (UniProt Q9HBY8); details: compound 10.0 µM
Chain of SGK2 (human) (Q9HBY8 whole entry, looked up): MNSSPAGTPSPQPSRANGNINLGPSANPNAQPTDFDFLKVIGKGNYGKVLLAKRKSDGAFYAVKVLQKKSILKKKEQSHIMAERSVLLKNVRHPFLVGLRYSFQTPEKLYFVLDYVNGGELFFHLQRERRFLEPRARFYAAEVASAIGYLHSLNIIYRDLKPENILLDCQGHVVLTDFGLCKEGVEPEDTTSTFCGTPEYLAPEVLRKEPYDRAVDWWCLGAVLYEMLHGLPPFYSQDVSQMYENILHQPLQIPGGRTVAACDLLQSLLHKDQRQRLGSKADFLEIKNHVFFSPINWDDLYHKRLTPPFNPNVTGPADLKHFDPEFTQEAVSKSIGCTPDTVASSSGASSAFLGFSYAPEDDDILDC

Chain of PRKCQ (human) (Q04759 whole entry, looked up): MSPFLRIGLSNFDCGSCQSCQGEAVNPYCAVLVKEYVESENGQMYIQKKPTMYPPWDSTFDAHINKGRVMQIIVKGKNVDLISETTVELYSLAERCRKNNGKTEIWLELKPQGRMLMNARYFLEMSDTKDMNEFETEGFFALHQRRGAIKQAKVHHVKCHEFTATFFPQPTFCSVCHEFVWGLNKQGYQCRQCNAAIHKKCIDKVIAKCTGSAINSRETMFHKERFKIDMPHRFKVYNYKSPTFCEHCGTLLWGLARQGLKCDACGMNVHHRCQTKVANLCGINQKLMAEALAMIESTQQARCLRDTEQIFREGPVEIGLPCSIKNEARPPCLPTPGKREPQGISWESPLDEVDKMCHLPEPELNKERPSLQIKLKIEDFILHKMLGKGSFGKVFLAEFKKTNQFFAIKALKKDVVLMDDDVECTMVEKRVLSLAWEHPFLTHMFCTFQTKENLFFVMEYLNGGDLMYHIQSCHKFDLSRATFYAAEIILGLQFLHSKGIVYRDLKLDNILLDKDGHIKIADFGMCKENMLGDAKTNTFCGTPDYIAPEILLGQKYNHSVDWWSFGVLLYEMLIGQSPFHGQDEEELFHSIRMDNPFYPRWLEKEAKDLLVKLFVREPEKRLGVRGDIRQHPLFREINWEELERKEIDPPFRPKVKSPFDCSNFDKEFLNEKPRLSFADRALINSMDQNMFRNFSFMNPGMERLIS
Chain of PRKX (human) (P51817 whole entry, looked up): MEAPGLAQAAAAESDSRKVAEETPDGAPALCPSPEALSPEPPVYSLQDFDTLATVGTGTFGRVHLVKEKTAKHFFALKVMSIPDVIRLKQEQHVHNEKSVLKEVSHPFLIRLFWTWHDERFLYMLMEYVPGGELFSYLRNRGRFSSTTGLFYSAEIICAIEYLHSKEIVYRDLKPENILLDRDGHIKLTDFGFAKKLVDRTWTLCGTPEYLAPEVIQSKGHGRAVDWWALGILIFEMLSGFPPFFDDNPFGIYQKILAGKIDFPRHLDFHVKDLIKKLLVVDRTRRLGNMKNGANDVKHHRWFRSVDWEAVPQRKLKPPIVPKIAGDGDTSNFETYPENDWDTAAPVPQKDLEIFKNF
Chain of PRKCE (human) (Q02156 whole entry, looked up): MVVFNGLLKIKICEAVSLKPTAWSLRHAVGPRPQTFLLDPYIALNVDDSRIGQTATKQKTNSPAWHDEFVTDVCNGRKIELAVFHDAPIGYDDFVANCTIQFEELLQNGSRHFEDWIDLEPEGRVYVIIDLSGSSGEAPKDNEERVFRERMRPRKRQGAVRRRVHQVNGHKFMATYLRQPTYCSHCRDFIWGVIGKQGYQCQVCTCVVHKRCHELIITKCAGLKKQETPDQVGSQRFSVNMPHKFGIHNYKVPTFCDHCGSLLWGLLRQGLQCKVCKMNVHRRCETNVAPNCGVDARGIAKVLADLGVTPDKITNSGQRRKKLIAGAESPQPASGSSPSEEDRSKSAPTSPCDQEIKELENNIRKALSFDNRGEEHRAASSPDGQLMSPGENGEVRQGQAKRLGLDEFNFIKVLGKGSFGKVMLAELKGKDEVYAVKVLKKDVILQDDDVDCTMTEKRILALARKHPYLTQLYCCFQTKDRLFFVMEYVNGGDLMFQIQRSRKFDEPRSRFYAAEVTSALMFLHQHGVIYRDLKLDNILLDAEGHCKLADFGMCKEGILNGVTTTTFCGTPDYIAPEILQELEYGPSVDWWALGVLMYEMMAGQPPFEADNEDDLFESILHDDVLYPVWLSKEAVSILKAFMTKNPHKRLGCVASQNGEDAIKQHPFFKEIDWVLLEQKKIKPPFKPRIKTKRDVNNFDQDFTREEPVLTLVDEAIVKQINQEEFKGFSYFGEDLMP
Chain of DMPK (human) (Q09013 whole entry, looked up): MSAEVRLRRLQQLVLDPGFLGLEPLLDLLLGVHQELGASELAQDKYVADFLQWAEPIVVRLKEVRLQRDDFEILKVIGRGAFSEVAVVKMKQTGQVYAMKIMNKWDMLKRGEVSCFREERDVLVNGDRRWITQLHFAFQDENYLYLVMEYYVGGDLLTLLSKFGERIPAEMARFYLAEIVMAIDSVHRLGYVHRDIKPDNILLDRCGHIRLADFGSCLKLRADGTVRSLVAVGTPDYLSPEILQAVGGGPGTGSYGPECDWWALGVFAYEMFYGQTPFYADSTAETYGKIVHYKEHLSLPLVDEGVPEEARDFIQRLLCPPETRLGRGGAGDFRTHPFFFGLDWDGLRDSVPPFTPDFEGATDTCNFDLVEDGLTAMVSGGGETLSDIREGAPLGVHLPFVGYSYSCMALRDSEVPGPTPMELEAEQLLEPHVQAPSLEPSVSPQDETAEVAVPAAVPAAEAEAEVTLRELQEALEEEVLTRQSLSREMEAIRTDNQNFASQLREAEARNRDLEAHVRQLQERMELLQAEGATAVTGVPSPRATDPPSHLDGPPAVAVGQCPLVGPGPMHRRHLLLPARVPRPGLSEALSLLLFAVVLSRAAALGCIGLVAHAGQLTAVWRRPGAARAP
Chain of RPS6KA1 KD1 (human) (Q15418 whole entry, looked up): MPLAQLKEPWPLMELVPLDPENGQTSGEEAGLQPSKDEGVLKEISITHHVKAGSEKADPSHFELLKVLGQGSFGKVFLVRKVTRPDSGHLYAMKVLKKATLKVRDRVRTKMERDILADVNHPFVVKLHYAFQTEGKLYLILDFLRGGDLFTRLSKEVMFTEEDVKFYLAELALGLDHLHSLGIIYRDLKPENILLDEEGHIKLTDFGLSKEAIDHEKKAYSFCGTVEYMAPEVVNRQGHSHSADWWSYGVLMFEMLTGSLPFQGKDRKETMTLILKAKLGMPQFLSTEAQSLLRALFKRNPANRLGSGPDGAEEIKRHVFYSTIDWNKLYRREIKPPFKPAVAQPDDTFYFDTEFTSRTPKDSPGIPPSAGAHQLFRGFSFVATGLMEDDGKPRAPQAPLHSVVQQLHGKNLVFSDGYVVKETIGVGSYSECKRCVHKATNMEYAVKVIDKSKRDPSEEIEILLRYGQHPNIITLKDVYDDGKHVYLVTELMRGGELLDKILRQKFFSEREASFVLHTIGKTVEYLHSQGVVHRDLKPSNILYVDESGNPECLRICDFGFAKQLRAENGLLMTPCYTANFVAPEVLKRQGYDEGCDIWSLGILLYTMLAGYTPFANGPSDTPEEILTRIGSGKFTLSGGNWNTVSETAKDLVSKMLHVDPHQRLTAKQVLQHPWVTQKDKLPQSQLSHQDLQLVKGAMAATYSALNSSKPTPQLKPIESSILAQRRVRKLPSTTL
Chain of RPS6KA6 KD1 (human) (Q9UK32 whole entry, looked up): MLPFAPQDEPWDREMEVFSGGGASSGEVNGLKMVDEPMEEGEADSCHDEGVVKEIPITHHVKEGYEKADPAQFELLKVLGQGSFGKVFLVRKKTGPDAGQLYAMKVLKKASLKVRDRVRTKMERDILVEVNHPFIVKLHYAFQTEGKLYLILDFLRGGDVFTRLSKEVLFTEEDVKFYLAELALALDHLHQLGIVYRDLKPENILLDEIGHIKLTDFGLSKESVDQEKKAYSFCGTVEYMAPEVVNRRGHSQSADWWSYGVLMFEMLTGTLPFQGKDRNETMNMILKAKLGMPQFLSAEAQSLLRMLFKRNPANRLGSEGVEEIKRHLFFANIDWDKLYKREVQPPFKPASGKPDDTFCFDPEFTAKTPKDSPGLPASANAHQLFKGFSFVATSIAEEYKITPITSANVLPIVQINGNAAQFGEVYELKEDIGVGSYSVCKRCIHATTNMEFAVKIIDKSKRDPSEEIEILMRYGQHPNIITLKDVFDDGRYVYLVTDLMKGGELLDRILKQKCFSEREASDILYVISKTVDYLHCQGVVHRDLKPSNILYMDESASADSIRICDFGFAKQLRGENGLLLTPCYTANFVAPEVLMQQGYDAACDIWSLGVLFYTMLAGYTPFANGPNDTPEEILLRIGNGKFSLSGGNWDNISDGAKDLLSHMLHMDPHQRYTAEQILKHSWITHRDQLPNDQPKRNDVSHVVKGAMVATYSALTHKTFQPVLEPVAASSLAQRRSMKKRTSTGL
Chain of RPS6KA4 KD1 (human) (O75676 whole entry, looked up): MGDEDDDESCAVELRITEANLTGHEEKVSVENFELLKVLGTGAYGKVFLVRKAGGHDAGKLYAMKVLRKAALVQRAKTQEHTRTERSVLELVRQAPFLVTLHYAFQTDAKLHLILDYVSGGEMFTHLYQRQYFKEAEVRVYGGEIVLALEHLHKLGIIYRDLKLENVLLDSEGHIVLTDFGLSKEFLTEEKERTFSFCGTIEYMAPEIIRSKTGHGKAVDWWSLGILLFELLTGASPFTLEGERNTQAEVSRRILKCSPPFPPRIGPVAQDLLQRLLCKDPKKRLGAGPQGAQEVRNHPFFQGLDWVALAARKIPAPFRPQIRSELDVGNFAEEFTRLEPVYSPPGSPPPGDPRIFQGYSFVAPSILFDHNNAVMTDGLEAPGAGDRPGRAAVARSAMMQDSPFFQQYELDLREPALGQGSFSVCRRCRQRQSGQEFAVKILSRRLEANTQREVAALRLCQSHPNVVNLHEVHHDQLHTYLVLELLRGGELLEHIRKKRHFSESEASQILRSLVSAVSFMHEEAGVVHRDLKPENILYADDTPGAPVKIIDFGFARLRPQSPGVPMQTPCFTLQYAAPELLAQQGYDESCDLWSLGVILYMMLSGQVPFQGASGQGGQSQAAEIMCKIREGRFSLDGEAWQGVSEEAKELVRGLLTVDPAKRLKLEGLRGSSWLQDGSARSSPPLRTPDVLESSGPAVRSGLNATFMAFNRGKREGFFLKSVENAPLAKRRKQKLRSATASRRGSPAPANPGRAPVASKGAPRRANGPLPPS

| SMILES | inhibition (RPS6KA3 KD1 (human)) | inhibition (PRKCD (human)) | inhibition (PRKCI (human)) | inhibition (AKT2 (human)) | inhibition (PKN1 (human)) | inhibition (STK32B (human)) | inhibition (PRKX (human)) | inhibition (RPS6KA2 KD1 (human)) | inhibition (AKT1 (human)) | inhibition (DMPK (human)) | inhibition (SGK3 (human)) | inhibition (PDPK1 (human)) | inhibition (AKT3 (human)) | inhibition (RPS6KA6 KD1 (human)) | inhibition (PRKCE (human)) | inhibition (PRKACA (mouse)) | inhibition (PRKCH (human)) | inhibition (PRKCG (human)) | inhibition (PRKCQ (human)) | inhibition (RPS6KA1 KD1 (human)) | other results |
| --- | --- | --- | --- | --- | --- | --- | --- | --- | --- | --- | --- | --- | --- | --- | --- | --- | --- | --- | --- | --- | --- |
| O=c1cc(N2CCOCC2)oc2c(-c3ccccc3)cccc12 | 0% | 0% | 0% | 0% | 0% | 0% | 0% | 0% | 0% | 0% | 0% | 0% | 0% | 0% | 0% | 0% | 0% | 0% | 0% | 16% | inhibition (AURKB (human)): 0%; inhibition (AURKC (human)): 0%; inhibition (PRKACB (human)): 0%; inhibition (RPS6KA4 KD1 (human)): 0%; inhibition (AURKA (human)): 0%; inhibition (RPS6KA5 KD1 (human)): 4%; inhibition (SGK2 (human)): 0% |
| Cc1cc2nc3c(=O)[nH]c(=O)nc-3n(C)c2cc1C=O | 0% | 31% | 0% | 0% | 0% | 18% | 2% | 8% | 24% | 0% | 0% | 0% | 0% | 1% | 13% | 11% | 8% | 9% | 5% | 0% | inhibition (AURKB (human)): 3%; inhibition (AURKC (human)): 12%; inhibition (PRKACB (human)): 21%; inhibition (RPS6KA4 KD1 (human)): 0%; inhibition (AURKA (human)): 5%; inhibition (RPS6KA5 KD1 (human)): 8%; inhibition (SGK2 (human)): 3% |
| O=C1NC(=O)c2c1c1c3ccccc3[nH]c1c1[nH]c3ccccc3c21 | 23% | 17% | 0% | 0% | 0% | 9% | 62% | 42% | 22% | 30% | 81% | 22% | 0% | 36% | 25% | 27% | 65% | 7% | 45% | 51% | inhibition (AURKB (human)): 50%; inhibition (AURKC (human)): 35%; inhibition (PRKACB (human)): 20%; inhibition (RPS6KA4 KD1 (human)): 55%; inhibition (AURKA (human)): 1%; inhibition (RPS6KA5 KD1 (human)): 47%; inhibition (SGK2 (human)): 70% |
| CN1CC[C@H](c2c(O)cc(O)c3c(=O)cc(-c4ccccc4Cl)oc23)[C@H](O)C1 | 8% | 15% | 0% | 0% | 1% | 11% | 8% | 2% | 1% | 6% | 0% | 0% | 0% | 2% | 0% | 5% | 0% | 0% | 35% | 19% | inhibition (AURKB (human)): 0%; inhibition (AURKC (human)): 28%; inhibition (PRKACB (human)): 0%; inhibition (RPS6KA4 KD1 (human)): 23%; inhibition (AURKA (human)): 12%; inhibition (RPS6KA5 KD1 (human)): 16%; inhibition (SGK2 (human)): 0% |
| O=C1NC(=O)c2c1c1c3ccccc3n3c1c1c2c2ccccc2n1C1CCC3O1 | 77% | 58% | 28% | 56% | 10% | 12% | 79% | 81% | 78% | 37% | 85% | 29% | 45% | 80% | 59% | 65% | 78% | 45% | 82% | 81% | inhibition (AURKB (human)): 60%; inhibition (AURKC (human)): 45%; inhibition (PRKACB (human)): 71%; inhibition (RPS6KA4 KD1 (human)): 77%; inhibition (AURKA (human)): 12%; inhibition (RPS6KA5 KD1 (human)): 73%; inhibition (SGK2 (human)): 87% |
| Nc1ncnc2[nH]nc(Nc3ccc(F)cc3)c12 | 0% | 0% | 0% | 0% | 1% | 42% | 24% | 0% | 3% | 2% | 23% | 0% | 0% | 0% | 6% | 9% | 13% | 0% | 17% | 0% | inhibition (AURKB (human)): 14%; inhibition (AURKC (human)): 16%; inhibition (PRKACB (human)): 1%; inhibition (RPS6KA4 KD1 (human)): 0%; inhibition (AURKA (human)): 0%; inhibition (RPS6KA5 KD1 (human)): 0%; inhibition (SGK2 (human)): 9% |
